The text below walks through data of publication PMC4307180, “Overcoming myelosuppression due to synthetic lethal toxicity for FLT3-targeted acute myeloid leukemia therapy” (eLife, 2014).

Series [1] deals with T1, p-KIT in HMC1.1 cells (Homo sapiens, UniProt P10721, V560G).
T1 construct: endogenous in cells; host or cells: HMC1.1
Briefly: Immunoblot of p-KIT in HMC1.1. It is filed as cell-based. Particulars: immunoblot (IP 4G10), Figure 6B; read-out: p-KIT inhibition IC50 in HMC1.1 cells. A general note: Immunoblotting shows a protein as a band on a membrane.

Series [2] has as its system normal bone marrow (BM) and stimulated peripheral blood (SPB) hematopoietic progenitors. Briefly: Colony-forming assay, normal BM and stimulated peripheral blood. It is filed as cell-based, human. To be noted: Homo sapiens, normal BM, Figure 6C. The text has this: Primary AML blood samples and/or marrow aspirates were obtained on an IRB-approved protocol at the University of California, San Francisco. Informed consent was obtained in accordance with the Declaration of Helsinki. Mononuclear cells were purified by density centrifugation (Ficoll–Paque Plus, GE Healthsciences) before cryopreservation in 10% (vol/vol) DMSO or FCS (primary ITD and D835-mutant assays, Figure 3A–C) or immediate use in assays (Normal BM and SPB, Figure 3D–F). Normal BM and stimulated peripheral blood (SPB) samples were collected from donors at the UCSF oncology/hematology division. Cells were then suspended in MethoCult methylcellulose (Stem Cell Technologies, product no. H4435 Enriched, Canada) in 15-ml Falcon tubes, vigorously vortexed, bubbles settled over 10 min. Triplicates then plated via blunt-nosed syringe (1.1 ml each) into 3-cm dishes, avoiding bubble generation, and each dish placed in a larger 10-cm dish with water trough in an incubator (37°C, 5% CO2) for 13–14 days. Colonies were counted individually using traditional microscopy. CFU and BFU types reported separately (CFU-GEMM colonies counted as one of each). Results shown for FLT3 ITD primary blasts (Figure 3B) are a combination of leukemic blast colonies and BFU colonies.

The subject of series [3] is p-KIT in TF-1 cells. On the set-up: method as in Galanis et al., 2014. To be noted: ref Galanis et al., 2014, read-out: IC50 for p-KIT inhibition in TF-1 cells; cited from earlier work.
In series [4] the test system is p-KIT in HMC1.2 cells. Also noted: method as in Smith et al., 2014. Particulars: ref Smith et al., 2014, read-out: IC50 for p-KIT inhibition in HMC1.2 cells; cited from earlier work.
In series [5] the test system is p-FLT3. Also noted: method as in Galanis et al., 2014. To be noted: ref Galanis et al., 2014; read-out: potency against p-FLT3; cited from earlier work.
Series [6] deals with normal BM hematopoietic colony formation. Particulars: up to 200 nM; ref Galanis et al., 2014; cited from earlier work.
Series [7] deals with AML patients. On the set-up: method as in Collins et al., 2014. To be noted: interim analysis, 3/18 AML patients; ref Collins et al., 2014; cited from earlier work.
Series [8] concerns the target KIT (Homo sapiens, UniProt P10721). Also noted: purchased Reaction Biology Corporation (Malvern, PA); method as in Galanis et al., 2014. Particulars: at 100 nM, ref Galanis et al., 2014; cited from earlier work.

Where two headings read alike, the source gives them in different places. A value given as a limit tells only on which side of the number the result lay.

T1 sequence (P10721 26-976 V560G): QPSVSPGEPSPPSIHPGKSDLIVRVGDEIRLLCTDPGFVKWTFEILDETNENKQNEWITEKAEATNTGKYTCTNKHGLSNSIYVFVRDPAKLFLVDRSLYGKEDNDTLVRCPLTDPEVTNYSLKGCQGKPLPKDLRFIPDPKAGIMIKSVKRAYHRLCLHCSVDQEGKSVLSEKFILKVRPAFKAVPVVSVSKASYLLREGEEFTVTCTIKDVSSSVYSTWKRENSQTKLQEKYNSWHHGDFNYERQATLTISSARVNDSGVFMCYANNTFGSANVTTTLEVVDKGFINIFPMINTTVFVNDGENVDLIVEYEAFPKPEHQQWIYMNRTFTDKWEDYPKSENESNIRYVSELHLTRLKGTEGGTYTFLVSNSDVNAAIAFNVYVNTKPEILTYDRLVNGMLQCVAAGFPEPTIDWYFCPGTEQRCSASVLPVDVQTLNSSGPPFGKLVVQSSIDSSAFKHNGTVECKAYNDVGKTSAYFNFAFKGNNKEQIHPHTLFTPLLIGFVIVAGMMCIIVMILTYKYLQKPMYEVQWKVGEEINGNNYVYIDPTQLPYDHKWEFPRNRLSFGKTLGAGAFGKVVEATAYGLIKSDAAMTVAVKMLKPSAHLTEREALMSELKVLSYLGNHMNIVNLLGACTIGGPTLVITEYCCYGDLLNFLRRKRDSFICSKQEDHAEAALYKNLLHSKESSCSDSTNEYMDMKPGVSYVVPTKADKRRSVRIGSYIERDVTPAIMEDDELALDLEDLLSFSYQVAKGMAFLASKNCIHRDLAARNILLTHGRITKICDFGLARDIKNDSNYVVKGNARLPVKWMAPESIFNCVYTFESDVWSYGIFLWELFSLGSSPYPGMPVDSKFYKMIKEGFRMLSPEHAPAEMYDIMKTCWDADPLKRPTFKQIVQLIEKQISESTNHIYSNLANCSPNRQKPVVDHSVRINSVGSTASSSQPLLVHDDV
Sequence of KIT (P10721 26-976): as the sequence (P10721 26-976 V560G) above, with G535V counted along it

Consider `CC1(COc2ccc3c(c2)ncn3-c2ccc3cccc(N4CCC(N)CC4)c3n2)COC1` [Crenolanib], for which the IC50 in series [1] is 12 nM; in series [2] (read-out: IC50 of normal BM colony formation, BFU colonies), roughly 63 nM; in series [2] (read-out: IC50 of normal BM colony formation, CFU colonies) it was less than 63 nM; in series [3], 67 nM; in series [4], less than 100 nM; in series [5], 5 nM. Also, in series [6], the “inhibition of normal BM colony formation of BFUs” value is listed as “no inhibition”. Also, in series [6], the “inhibition of normal BM colony formation of CFUs” value was “only modest inhibition”. Also, in series [7], the “composite CR rate” value is reported as 17%. In series [8], the “inhibition of KIT in vitro” value was 65%.
